Assays:
[1] = cited from earlier work; for CMC: critical micelle concentration; for HLB: hydrophilic-lipophilic balance
[2] = Formulation study: effect of excipient on implant shape and durability (Example 3); type: physicochemical; settings: cartridges about 28% HEMA, about 66.5% HPMA, 5% glycerin
Text: A series of implants was monitored to determine the effect of excipient on implant shape and durability. Each of the polymer cartridges was composed of about 28% HEMA, about 66.5% HPMA and 5% glycerin.

IGF-1 = settings: acromegaly patients on octreotide; cited from earlier work
GH = settings: following a subcutaneous octreotide injection; cited from earlier work

Compound	CMC [1] [mM]	HLB [1]	stabilization of the octreotide implant by excipient [2]	also measured
CCCCCCCC/C=C\CCCCCCCC(=O)OCCOCC(OCCO)C1OCC(OCCO)C1OCCO (stereo not shown) [Tween 80]	0.012	15		
O=C(O)CO [glycolic acid]			did not provide a stabilizing effect and resulted in a decrease in integrity	
OC[C@@H](O)[C@@H](O)[C@H](O)[C@H](O)CO [mannitol]			did not provide a stabilizing effect and resulted in a decrease in integrity	
L-cysteinamide, D-phenylalanyl-L-cysteiny-L-phenylalanyl-D-tryptophyl-L-lysyl-L-threonyl-N-[2-hydroxy-1-(hydroxymethyl)propyl]-, cyclic(2→7)-disulfide; [Octreotide, L-cysteinamide, D-phenylalanyl-L-cysteiny-L-phenylalanyl-D-tryptophyl-L-lysyl-L-threonyl-N-[2-hydroxy-1-(hydroxymethyl)propyl]-, cyclic(2→7)-disulfide; [R-(R*,R*)]]				patients with normalization of IGF-1 levels (IGF-1): up to 60 % of patients; time to GH level decrease (GH): usually decrease within two hours
Sucrose monolaurate	0.2	~8		
Triton X-100	0.2 to 0.9	13.5		
